#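 Interpolation was linear, between the two tested concentrations surrounding the appropriate level; five concentrations were tested over 48 hours in 96-well plates. At the GI50, growth is halved.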 Active and inactive are the calls of the source. No stated cut-off is given here; in the data, active = GI50 up to about 1.1 µM and inactive = higher.
# Columns and labels:
# Test in all cases: inhibition of tumour cell growth, NCI panel, 48 h
# OVCAR-3 = test system: OVCAR-3
# OVCAR-8 = test system: OVCAR-8
# M14 = test system: M14
# T47D = test system: T47D
# Malme-3M = test system: Malme-3M
# IGROV-1 = test system: IGROV-1
# SW-620 = test system: SW-620
# CCRF-CEM = test system: CCRF-CEM
# SK-MEL-5 = test system: SK-MEL-5
# U-251 = test system: U-251
# RPMI-8226 = test system: RPMI-8226
# SNB-19 = test system: SNB-19
# OVCAR-5 = test system: OVCAR-5
# HOP-92 = test system: HOP-92
# PC-3 = test system: PC-3
# NCI-H460 = test system: NCI-H460
# KM12 = test system: KM12
# DU-145 = test system: DU-145
# OVCAR-4 = test system: OVCAR-4
# HT-29 = test system: HT-29
SMILES,GI50 (OVCAR-3),GI50 (OVCAR-8),GI50 (M14),GI50 (T47D),GI50 (Malme-3M),GI50 (IGROV-1),GI50 (SW-620),GI50 (CCRF-CEM),GI50 (SK-MEL-5),GI50 (U-251),GI50 (RPMI-8226),GI50 (SNB-19),GI50 (OVCAR-5),GI50 (HOP-92),GI50 (PC-3),GI50 (NCI-H460),GI50 (KM12),GI50 (DU-145),GI50 (OVCAR-4),GI50 (HT-29)
Cc1nnc2sc(-c3ccc([N+](=O)[O-])o3)nn12,12.8 µM (inactive),11.4 µM (inactive),9.91 µM (inactive),20 µM (inactive),4.08 µM (inactive),15.7 µM (inactive),4.85 µM (inactive),1.85 µM (inactive),11.8 µM (inactive),14.7 µM (inactive),10.5 µM (inactive),18.8 µM (inactive),18.5 µM (inactive),15.9 µM (inactive),14.7 µM (inactive),17.9 µM (inactive),15.8 µM (inactive),15 µM (inactive),15 µM (inactive),12.9 µM (inactive)
CN1C(=O)C(O)CC1c1cccc(C(F)(F)F)c1 (stereo not given),> 100 µM (inactive),> 100 µM (inactive),> 100 µM (inactive),> 100 µM (inactive),> 100 µM (inactive),> 100 µM (inactive),> 100 µM (inactive),> 100 µM (inactive),> 100 µM (inactive),> 100 µM (inactive),> 100 µM (inactive),> 100 µM (inactive),> 100 µM (inactive),> 100 µM (inactive),> 100 µM (inactive),> 100 µM (inactive),> 100 µM (inactive),> 100 µM (inactive),> 100 µM (inactive),> 100 µM (inactive)
COC(=O)[C@@H]1[C@@H]2NC(=S)N[C@@]1(C)Oc1ccccc12,> 100 µM (inactive),51.5 µM (inactive),42.8 µM (inactive),> 100 µM (inactive),52 µM (inactive),49 µM (inactive),55.7 µM (inactive),61.9 µM (inactive),42 µM (inactive),38.3 µM (inactive),48.2 µM (inactive),49 µM (inactive),60.4 µM (inactive),49.9 µM (inactive),63.5 µM (inactive),44.2 µM (inactive),29.7 µM (inactive),36.3 µM (inactive),> 100 µM (inactive),28.5 µM (inactive)
O=C(/C=C/c1ccc2c(c1)OCO2)c1ccccc(=O)c1O,10.7 µM (inactive),4.3 µM (inactive),–,20.9 µM (inactive),23.3 µM (inactive),5.77 µM (inactive),12 µM (inactive),0.0376 µM (active),7.66 µM (inactive),15.9 µM (inactive),7.14 µM (inactive),8.71 µM (inactive),–,13.7 µM (inactive),21.5 µM (inactive),3.28 µM (inactive),8.43 µM (inactive),17.3 µM (inactive),26.5 µM (inactive),9.51 µM (inactive)
Cc1ccc([N+](=O)[O-])cc1S(=O)(=O)Nc1ccc(C2=NN(C(=O)c3ccccc3)C(c3ccccc3O)C2)cc1 (stereo not given),17 µM (inactive),13.9 µM (inactive),16.3 µM (inactive),11.8 µM (inactive),12.6 µM (inactive),10.2 µM (inactive),30.9 µM (inactive),17.5 µM (inactive),15.8 µM (inactive),16.5 µM (inactive),11.5 µM (inactive),28.2 µM (inactive),19.7 µM (inactive),12 µM (inactive),13.2 µM (inactive),–,28.6 µM (inactive),20.2 µM (inactive),15.4 µM (inactive),17.7 µM (inactive)
Nc1nc(Nc2ccc(Cl)cc2)sc1C(=O)c1cccs1,5.57 µM (inactive),–,> 100 µM (inactive),77.8 µM (inactive),99.3 µM (inactive),39.6 µM (inactive),59 µM (inactive),53.7 µM (inactive),38.2 µM (inactive),14.7 µM (inactive),> 100 µM (inactive),19.9 µM (inactive),> 100 µM (inactive),44.5 µM (inactive),> 100 µM (inactive),17.9 µM (inactive),> 100 µM (inactive),78.9 µM (inactive),25.9 µM (inactive),6.18 µM (inactive)
Cc1nc2cc(F)c(F)cc2[nH]c1=O,> 100 µM (inactive),> 100 µM (inactive),> 100 µM (inactive),> 100 µM (inactive),> 100 µM (inactive),–,> 100 µM (inactive),> 100 µM (inactive),> 100 µM (inactive),> 100 µM (inactive),> 100 µM (inactive),> 100 µM (inactive),> 100 µM (inactive),> 100 µM (inactive),> 100 µM (inactive),> 100 µM (inactive),> 100 µM (inactive),> 100 µM (inactive),> 100 µM (inactive),> 100 µM (inactive)
COc1ccc2c(-c3ccc(O)cc3)c(Oc3ccccc3)c(=O)oc2c1,5.4 µM (inactive),16.2 µM (inactive),> 100 µM (inactive),> 28 µM (inactive),9.44 µM (inactive),3.78 µM (inactive),–,3.96 µM (inactive),3.95 µM (inactive),> 22.9 µM (inactive),2.62 µM (inactive),–,> 24.4 µM (inactive),12 µM (inactive),> 66.5 µM (inactive),11.9 µM (inactive),14.6 µM (inactive),4.58 µM (inactive),9.62 µM (inactive),11.7 µM (inactive)
O=CC(O)C(O)C(O)C1CNC(=S)O1 (stereo not given),> 100 µM (inactive),> 100 µM (inactive),> 100 µM (inactive),> 100 µM (inactive),> 100 µM (inactive),> 100 µM (inactive),> 100 µM (inactive),> 100 µM (inactive),> 100 µM (inactive),> 100 µM (inactive),> 100 µM (inactive),–,> 100 µM (inactive),> 100 µM (inactive),> 100 µM (inactive),> 100 µM (inactive),> 100 µM (inactive),> 100 µM (inactive),> 100 µM (inactive),> 100 µM (inactive)
O=C(Nc1ccccc1)c1cc(S(=O)(=O)Nc2n[nH]c(=O)n2-c2ccccc2)c(S)cc1Cl,> 100 µM (inactive),> 100 µM (inactive),> 100 µM (inactive),> 100 µM (inactive),> 100 µM (inactive),> 100 µM (inactive),> 100 µM (inactive),–,> 100 µM (inactive),> 100 µM (inactive),> 100 µM (inactive),> 100 µM (inactive),> 100 µM (inactive),> 100 µM (inactive),> 100 µM (inactive),> 100 µM (inactive),> 100 µM (inactive),> 100 µM (inactive),> 100 µM (inactive),> 100 µM (inactive)
CCCCOC(=O)NC(Nc1ccc(S(=O)(=O)Nc2ncccn2)cc1)(C(F)(F)F)C(F)(F)F,> 100 µM (inactive),> 100 µM (inactive),> 100 µM (inactive),37 µM (inactive),> 100 µM (inactive),> 100 µM (inactive),> 100 µM (inactive),76 µM (inactive),> 100 µM (inactive),–,86.9 µM (inactive),> 100 µM (inactive),> 100 µM (inactive),> 100 µM (inactive),> 100 µM (inactive),> 100 µM (inactive),> 100 µM (inactive),> 100 µM (inactive),> 100 µM (inactive),> 100 µM (inactive)

# — ChEMBL document CHEMBL1201862, “PubChem BioAssay data set” (2004)
